Data published in patent publication US9593068B2, “Derivatives of tartaric acid” (RATIOPHARM GMBH, priority 2013, dated 2017).

Test: Kinetics of MMF-release during incubation in intestinal fluid of the minipig (LC-MS quantification of MMF)
Assay type: in vitro ADME, Göttingen SPF minipig
Conditions: diluted small intestinal fluid (1/20 v/v with 50 mM KH2PO4, pH 6.8), 37° C., samples at 0-120 min; reference DMF; FIG. 1 / FIG. 2
Description: Investigation and Comparision of the Kinetics of MMF-Release of the Different Compounds of the Present Invention and DMF During Incubation in Intestinal Fluid of the Minipig
Intestinal fluid samples were prepared at CiToxLAB Scantox A/S. The samples were taken from 1 female Göttingen SPF minipig from CiToxLAB Scantox A/S standard stock, originally obtained from Ellegaard Göttingen Minipigs A/S, DK-4261 Dalmose, Denmark. The minipig was 10 months old and the body weight was 21 kg. The minipig was identified by an individual number tagged to the pinna of one ear (animal number is documented in the raw data).
The minipig was fasted for approximately 28 hours before sampling of intestinal fluid. On the day of sampling, the minipig was weighed and anaesthetised by an intramuscular injection in the neck or in the left hind leg (about 0.3 ml per kg body weight) of a mixture of Zoletil 50 Vet., Virbac, France (125 mg tiletamine and 125 mg zolazepam), Rompun Vet., Bayer, Germany (20 mg xylazine/ml, 6.5 ml), Ketaminol Vet., Veterinaria AG, Switzerland (100 mg ketamine/ml, 1.5 ml) and Methadon DAK, Nycomed Danmark, Denmark (10 mg methadon/ml, 2.5 ml).
Intestinal fluid was obtained by flushing one jejunal segment, measuring 30.2 cm, with saline. Intestinal fluid together with saline used for flushing was placed in centrifuge tubes. All samples were frozen at −70° C. and shipped on dry ice to the Sponsor for further use.
2.1.1. Analytical Instrument • Instrument: Acquity UPLC system coupled with a TQ detector (triple quadruple mass spectrometer)
Calibration solutions were prepared by serial dilution of SSMMF; diluted small intestinal fluid (diluted by 1/20 v/v with 50 mM KH2PO4, pH 6.8; (dil IF) was used as matrix. The dilution scheme is given below:
50 μl sample (calibration solution or sample of an incubation experiment with MMF prodrugs) was mixed with 50 μl WSISTD, 20 μl formic acid and 100 μl acetonitrile. This mixture was vortexed for 15 sec and centrifuged (13,000 rpm, 3 min). Thereafter, 4 μl of the supernatant were subjected to LC-MS analysis.
2.2. Incubation Experiments with DMF (Reference) and Compounds of the Invention
Stock solutions were prepared in DMSO. Concentrations in stock solutions were 5.00, 2.50 and 1.67 mmol for compounds with one, two and three molar MMF equivalents.
In a HPLC glass vial, 8 μl of stock solution were mixed with 792 μl dil IF and the mixture was stirred (250 rpm) in a water bath (T=37° C.).
Immediately after mixing as well as at t=15 min, 30 min, 60 min, 90 min and 120 min, 50 μl were withdrawn and prepared for LC-MS analysis as described in chapter. 2.1.3.
Incubations were continued and in case the result of analysis of the 120 min indicated the presence of remaining intact MMF prodrug, additional samples were taken (t=360 or 420 min and at 1,260 or 1,320 min) and analysed.
The concentration/peak area ratio data pairs were subjected to regression analysis with 1/x weighting and the resulting calibration equation was used to quantify the MMF content in incubation samples.

Row | hydrolyzation (to MMF) compared to DMF | release kinetics (MMF release) compared to DMF | SMILES
1 | modified hydrolyzation compared to DMF | significantly slower than the one of DMF | CCOC(=O)[C@H](OC(=O)/C=C/C(=O)OC)[C@@H](OC(=O)/C=C/C(=O)OC)C(=O)OCC [Example 1, (E)-But-2-enedioic acid (1R,2R)-1,2-bis-ethoxy-carbonyl-2-((E)-3-methoxycarbonyl-acryloyloxy)-ethyl ester methyl ester]
2 | modified hydrolyzation compared to DMF | significantly slower than the one of DMF | COC(=O)/C=C/C(=O)O[C@@H](C(=O)OC(C)C)[C@@H](OC(=O)/C=C/C(=O)OC)C(=O)OC(C)C [Example 2, (E)-But-2-enedioic acid (1R,2R)-1,2-bis-isopropoxycarbonyl-2-((E)-3-methoxycarbonyl-acryloyloxy)-ethyl ester methyl ester]

Row | SMILES | hydrolyzation (to MMF) compared to DMF | release kinetics (MMF release) compared to DMF
3 | COC(=O)/C=C/C(=O)OCCN(CCO)CCOC(=O)/C=C/C(=O)OC [Example 3, (2-Hydroxy-ethyl)-bis-[2-((E)-3-methoxycarbonyl-acryloyloxy)-ethyl]-amine] | modified hydrolyzation compared to DMF | significantly slower than the one of DMF
